Laboratory results from patent US20230122776A1, “ANTIVIRAL AGENT” (priority 2020, published 2023).
“And” between values parts separate entries of the source, which are not always exact repeats. Equal values may be shown once. Read-outs that look alike come from different tables or passages of the source.

Tests used:
[1] = target: blood coagulation factor X (Homo sapiens, UniProt P00742); details: from Reinmüller, Zentralblatt Chirurgie 124 (1999); cited from earlier work
SARS-CoV-2 [2] = type: in vivo; details: 4 close contacts; inhaled taurolidine 0.5% 3 times or twice a day for 7 days
SARS-CoV-2 [3] = type: in vivo

Sequence of blood coagulation factor X (P00742 41-488): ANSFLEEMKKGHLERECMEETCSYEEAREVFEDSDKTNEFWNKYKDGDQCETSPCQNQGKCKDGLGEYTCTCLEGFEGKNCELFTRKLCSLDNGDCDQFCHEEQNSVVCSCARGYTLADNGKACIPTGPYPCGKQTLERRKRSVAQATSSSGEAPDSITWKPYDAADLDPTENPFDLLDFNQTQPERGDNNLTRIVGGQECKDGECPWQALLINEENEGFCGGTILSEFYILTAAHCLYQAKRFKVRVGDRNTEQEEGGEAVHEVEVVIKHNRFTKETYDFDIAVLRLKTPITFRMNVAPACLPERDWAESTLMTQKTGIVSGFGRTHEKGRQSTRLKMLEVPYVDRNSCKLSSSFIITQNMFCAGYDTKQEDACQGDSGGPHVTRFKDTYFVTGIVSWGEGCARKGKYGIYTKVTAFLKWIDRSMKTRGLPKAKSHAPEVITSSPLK

## O=S1(=O)CCN(CN2CCS(=O)(=O)NC2)CN1 [taurolidine]
[1]
  activity of the blood coagulation factor X: inhibits the activity
SARS-CoV-2 [2]
  POCT for SARS-CoV-2 under prophylaxis: remained negative
  disease symptoms under prophylaxis: remained symptom-free
SARS-CoV-2 [3]; SARS-CoV-2 positive (POCT) participant, inhaled taurolidine 0.5% three times a day
  time interval from the start of treatment to the easing of the symptoms: ≤ 48 h
SARS-CoV-2 [3]; in vivo
  time interval from the start of treatment to the easing of the symptoms: 96 h and 72 h
